Laboratory results as given in US4434290A, “Pyrido (4,3-B) carbazoles substituted in the 1 position by a polyamine chain” (priority 1978, dated 1984).
Values joined by “and” are separate entries in the source; they are usually repeats but may differ in a detail not shown here. Equal values may be shown once.

How the values were obtained:
leukemia L1210 [1] = experiment: Leukemia L1210 in vivo, measurement of survival time (Table XII); parameters: species or system B6 D2 Fl (C 57 Bl/6×DBA/2) Fl mice; MST: unit not given here; details: for Death interval (mice) / ILS % / MST / Surviving mice: i.p.
Method: The following pharmacological trials relate to the effects of the compounds of the invention on leukemia L1210 in vivo.
G. Proc. Nat. Acad. Sci. 1972, 69, 1042-1047 and Schepartz S., Screening 1971, Cancer Chemother. Part 3; Vol. 2, p. 3].
The properties were determined by the curative action inoculated experimental leukemia L1210. This leukemia was maintained on B6 D2 Fl (C 57 Bl/6×DBA/2) Fl mice in the proportion of 6 or 10 mice per experimental batch. The compounds to be tested were injected by the intraperitoneal route one or several days after inoculation of the cells (1 injection only). […] The death interval was determined, the first figure of the Table indicating the date of the first mouse death and the second the date of the last mouse death. The mean survival time was also measured (MST). A characteristic value is the percentage of increased life span (ILS %). This value (Cancer. Res. 1971, 31, 1883-1887) is the ratio: [formula] where S^t =survival of treated animals and
S^c =survival of control animals.

leukemia L1210 [2] = experiment: Leukemia L1210 in vivo, dose/effect relationship (Table XIV); parameters: species or system mice; details: for Death interval / ILS % / Mean survival time: 10^5 cells; for Death interval / ILS % / Mean survival time / Surviving mice: D+1; for Surviving mice: groups of six mice
Method: The properties were determined by the curative action inoculated experimental leukemia L1210. This leukemia was maintained on B6 D2 Fl (C 57 Bl/6×DBA/2) Fl mice in the proportion of 6 or 10 mice per experimental batch. The compounds to be tested were injected by the intraperitoneal route one or several days after inoculation of the cells (1 injection only). The death interval was determined, the first figure of the Table indicating the date of the first mouse death and the second the date of the last mouse death. The mean survival time was also measured (MST). A characteristic value is the percentage of increased life span (ILS %). This value (Cancer. Res. 1971, 31, 1883-1887) is the ratio: [formula] where S^t =survival of treated animals and
The study was carried out on experimental groups of six mice by the previously defined method. 10^5 cells were injected at day Do. […] The death interval was determined, the mean survival time was measured (MST) and the percentage of increased life span was calculated (ILS %) by the above-defined formula.

[3] = experimental group of six mice, 15 mg/kg, day +1, 15 mg/kg
[4] = experimental group of six mice, 20 mg/kg, day +1

For CCN(CC)CCCNc1nccc2c(C)c3[nH]c4ccc(OC)cc4c3c(C)c12 [Compound 27], the “Death interval (mice)” value (leukemia L1210 [1]; 10^5 cells, 10 mg/kg, day +3) was 12-31, the ILS % (leukemia L1210 [1]; 10^5 cells, 10 mg/kg, day +3) was 49.4% and the MST (leukemia L1210 [1]; 10^5 cells, 10 mg/kg, day +3) was 17.3. The “Death interval (mice)” value (leukemia L1210 [1]; 10^5 cells, 10 mg/kg, day +4) was 16-27, the ILS % (leukemia L1210 [1]; 10^5 cells, 10 mg/kg, day +4) was 92.3% and the MST (leukemia L1210 [1]; 10^5 cells, 10 mg/kg, day +4) was 20. For the same compound, the “Death interval (mice)” value (leukemia L1210 [1]; 10^5 cells, 15 mg/kg, day +1) was 17-43, the ILS % (leukemia L1210 [1]; 10^5 cells, 15 mg/kg, day +1) was 128.6% and the MST (leukemia L1210 [1]; 10^5 cells, 15 mg/kg, day +1) was 24. The “Death interval (mice)” value (leukemia L1210 [1]; 10^5 cells, 20 mg/kg, day +3) was 10-30, the ILS % (leukemia L1210 [1]; 10^5 cells, 20 mg/kg, day +3) was 42.7% and the MST (leukemia L1210 [1]; 10^5 cells, 20 mg/kg, day +3) was 16.5. The “Death interval (mice)” value (leukemia L1210 [1]; 10^5 cells, 20 mg/kg, day +4) was 17-23, the ILS % (leukemia L1210 [1]; 10^5 cells, 20 mg/kg, day +4) was 94.2% and the MST (leukemia L1210 [1]; 10^5 cells, 20 mg/kg, day +4) was 20.2. The Surviving mice (leukemia L1210 [1]; experimental group of six mice, 15 mg/kg, day +1) was 4 mice, the “Death interval (mice)” value (leukemia L1210 [1]; [3]) was 19-35 and 20-32 and the MST (leukemia L1210 [1]; [3]) was 25 and 26. For the same compound, the “Death interval (mice)” value (leukemia L1210 [1]; [4]) was 20-31, the ILS % (leukemia L1210 [1]; [4]) was 102.4% and the MST (leukemia L1210 [1]; [4]) was 25.5. The Surviving mice (leukemia L1210 [1]; [4]) was 4 mice, the “increase in the life span (ILS)” value (leukemia L1210 [1]; text: dose closest to the toxic dose, same conditions) was 134% and the “dose/effect relationship” value (leukemia L1210 [2]; 5-20 mg/kg, day D+1) was “proportional to the dose inoculated”. For the same compound, the Death interval (leukemia L1210 [2]; 5 mg/kg) was 16-24, the ILS % (leukemia L1210 [2]; 5 mg/kg) was 80.4% and the Mean survival time (leukemia L1210 [2]; 5 mg/kg) was 19.3. The Death interval (leukemia L1210 [2]; 10 mg/kg) was 14-21, the ILS % (leukemia L1210 [2]; 10 mg/kg) was 57% and the Mean survival time (leukemia L1210 [2]; 10 mg/kg) was 16.8. For the same compound, the Death interval (leukemia L1210 [2]; 15 mg/kg) was 13-31, the ILS % (leukemia L1210 [2]; 15 mg/kg) was 96.3% and the Mean survival time (leukemia L1210 [2]; 15 mg/kg) was 21. For the same compound, the Death interval (leukemia L1210 [2]; 20 mg/kg) was 15-25, the ILS % (leukemia L1210 [2]; 20 mg/kg) was 75.7% and the Mean survival time (leukemia L1210 [2]; 20 mg/kg) was 18.8. For the same compound, the Surviving mice (leukemia L1210 [2]; 5 mg/kg) was 0 mice, the Surviving mice (leukemia L1210 [2]; 10 mg/kg) was 0 mice and the Surviving mice (leukemia L1210 [2]; 15 mg/kg) was 0 mice. For the same compound, the Surviving mice (leukemia L1210 [2]; 20 mg/kg) was 1 mice.
